# According to US20140127292A1, “PHARMACEUTICAL COMPOSITIONS FOR THE ORAL ADMINISTRATION OF HEPARIN OR DERIVATIVES THEREOF” (Cosmo Technologies Limited, priority 2001, published 2014):
# System: colitis induced by trinitrobenzene sulfonic acid (TNBS)
# Test: in vivo test: TNBS-induced colitis in rats, intracolonic treatment
# Details: for Colon weight: 10 cm distal colon; for Colon weight / Macroscopic score / Necrosis areas (Mucosal Damage Area, MDA): day 4; for Body weight variation / Final body weight: days 1-3, day 4; for Macroscopic score / Necrosis areas (Mucosal Damage Area, MDA): distal colon
# Protocol: 70 Wister male rats were kept fasted for 20 hours before the induction of colitis. In the morning of the experiment (day 0), the rats were injected with a 40% solution of ethanol containing 30 mg of trinitrobenzene sulfonic acid (TNBS) by means of a single intracolonic injection. On days 1, 2 and 3 after the induction of colitis, Dalteparin sodium suspended in 0.25 mL of a 1% sodium cholate in saline (0.3 mg/rat, 0.6 mg/rat and 0.9 mg/rat), or 0.25 mL of vehicle (1% sodium cholate in saline) were instilled intracolonically. An additional group constituted by 4 untreated rats was also included. On day 4 from the induction of colitis, animals were euthanized and autopsy was performed. The colon have been isolated and 10 cm of the distal portion have been resected and weighted. […] The results, summarized in the table below, have been compared with those obtained from the control animals.
# [1] = 0.6 mg/rat/die intracolonic, listed as dalteparin sodium
substance,measurement,setting,value
Dalteparin sodium,Mortality,0.3 mg/rat/die intracolonic,0%
same,Colon weight,0.3 mg/rat/die intracolonic,1.72 ± 0.30 g
same,Colon weight,"0.3 mg/rat/die intracolonic, listed as dalteparin sodium",1.72 ± 0.30 g
same,Body weight variation,0.3 mg/rat/die intracolonic,−21%
same,Final body weight,0.3 mg/rat/die intracolonic,166 ± 14 g
same,Macroscopic score,0.3 mg/rat/die intracolonic,5.6 ± 0.52
same,"Necrosis areas (Mucosal Damage Area, MDA)",0.3 mg/rat/die intracolonic,463.4 ± 89.6 mm^2
same,Mortality,0.6 mg/rat/die intracolonic,10%
same,Colon weight,0.6 mg/rat/die intracolonic,1.80 ± 0.38 g
same,Body weight variation,0.6 mg/rat/die intracolonic,−15%
same,Final body weight,0.6 mg/rat/die intracolonic,180 ± 17 g
same,Macroscopic score,0.6 mg/rat/die intracolonic,4.9 ± 1.05
same,"Necrosis areas (Mucosal Damage Area, MDA)",0.6 mg/rat/die intracolonic,309.9 ± 155.8 mm^2
same,Macroscopic score,[1],4.9±1.05
same,"Necrosis areas (Mucosal Damage Area, MDA)",[1],309.9±155.8 mm^2
same,Mortality,0.9 mg/rat/die intracolonic,10%
same,Colon weight,0.9 mg/rat/die intracolonic,1.76 ± 0.22 g
same,Colon weight,"0.9 mg/rat/die intracolonic, listed as dalteparin sodium",1.76 ± 0.22 g
same,Body weight variation,0.9 mg/rat/die intracolonic,−17%
same,Final body weight,0.9 mg/rat/die intracolonic,176 ± 15 g
same,Macroscopic score,0.9 mg/rat/die intracolonic,5.8 ± 0.44
same,"Necrosis areas (Mucosal Damage Area, MDA)",0.9 mg/rat/die intracolonic,492.5 ± 104.6 mm^2
same,overall effect of treatment on the considered parameters,"0.3, 0.6 and 0.9 mg/rat intracolonic, versus vehicle control group",effective in reducing all the considered parameters
